Converted amounts (≈) assume the structure as drawn. Like-named read-outs stand apart in the source and are kept apart here.
Assays:
[1] = system: MRSA; experiment: Microbroth dilution antibiotic susceptibility assay; type: cell-based; settings: Staphylococcus aureus, read-out: IC50 MRSA
[2] = system: VRE; experiment: as above; type: cell-based, Enterococcus faecium; settings: Enterococcus, read-out: IC50 VRE
[3] = system: M. smegmatis (ATCC 12051); experiment: as above; type: cell-based; settings: Mycolicibacterium smegmatis
[4] = system: M. diernhoferi (ATCC 19340); experiment: as above; type: cell-based; settings: Mycolicibacterium diernhoferi
[5] = system: M. tuberculosis H37Rv (ATCC 27294); experiment: microbe, parasite or virus in culture; type: cell-based, Mycobacterium tuberculosis; settings: for inhibition at 64 µg/mL / MIC: Mycobacterium tuberculosis; for inhibition at 64 µg/mL: % inhibition at 64 μg/mL, read-out: LORA % inh; for MIC: read-out: LORA MIC
[6] = system: Vero cells; experiment: cells; settings: Chlorocebus sabaeus; for cytotoxicity at 128 µg/mL: read-out: Vero cell (% inh); for IC50: read-out: Vero cell IC50
[7] = system: M. tuberculosis H37Rv (ATCC 27294); experiment: Microplate Alamar blue assay (MABA); type: cell-based, Mycobacterium tuberculosis; settings: for SI (Selectivity Index): (Vero Cell IC50)/(M. tuberculosis MIC); for MIC: Mycobacterium tuberculosis
[8] = ATCC12051, microbroth dilution, read-out: MIC M. smegmatis
[9] = ATCC19340, microbroth dilution, read-out: MIC M. diernhoferi
[10] = non-replicating persistent model
[11] = M. tuberculosis H37Rv (ATCC 27294), replicating, read-out: MABA MIC
[12] = wild-type M. tuberculosis H37Rv, Table 2 experiment, read-out: MABA MIC H37Rv

| Structure (SMILES) | MIC [3, 8] [µg/mL] | MIC [4, 9] [µg/mL] | inhibition at 64 µg/mL [5] [%] | IC50 [6] [µg/mL] | SI (Selectivity Index) [7] | MIC [7, 11] [µg/mL] | further results |
| --- | --- | --- | --- | --- | --- | --- | --- |
| CC(C)=CC1CC(C)C2CCC(C)c3c2c1c(C)c1nc(Cc2cnc[nH]2)oc31 (stereo not drawn) [7a/7b] | 4 (≈ 10.3 µM) | 2 (≈ 5.13 µM) | 92.5 | > 128 | >9.7 | 13 | IC50 [1]: 3 µg/mL (≈ 7.7 µM); IC50 [2]: 7.5 µg/mL (≈ 19.3 µM); MIC [5, 10]: 12 µg/mL; MIC ([5]; value given in μM): 31 µM; cytotoxicity at 128 µg/mL [6]: 4%; MIC ([7]; MABA, value given in μM, read-out: MIC against M. tuberculosis H37Rv): 34 µM |
| CC(C)=C[C@@H]1C[C@H](C)[C@H]2CC[C@H](C)c3c(O)c(O)c(C)c1c32 [Compound 4, pseudopterosin G–J aglycone] | 8 (≈ 26.6 µM) | 8 (≈ 26.6 µM) | 53.1 | 50 (≈ 166 µM) | – | > 128 | IC50 ([1]; microbroth dilution): 88 µg/mL (≈ 293 µM); IC50 ([2]; microbroth dilution): > 128 µg/mL |
| CC(C)=C[C@@H]1C[C@H](C)[C@H]2CC[C@H](C)c3c2c1c(C)c1nccnc31 [Compound 5, Pseudopteroquinoxaline] | 16 (≈ 49.9 µM) | 64 (≈ 200 µM) | 99.9 | 22 (≈ 68.6 µM) | 0.8 | 29 | IC50 ([1]; microbroth dilution): > 128 µg/mL; IC50 ([2]; microbroth dilution): > 128 µg/mL |
| COC(C)(C)C[C@@H]1C[C@H](C)[C@H]2CC[C@H](C)c3c2c1c(C)c1nccnc31 [Compound 6, 14,15-Dihydro-15-methoxy-pseudopteroquinoxaline] | – | – | 99.9 | 15 (≈ 42.6 µM) | 0.2 | 84 | – |
| CCCCCOc1c(C)c2c3c(c1O)[C@@H](C)CC[C@@H]3[C@@H](C)C[C@H]2C=C(C)C [Compound 8, 10-Pentoxy-pseudopterosin G–J Aglycone] | > 128 | > 128 | 35.1 | 49 (≈ 132 µM) | – | > 128 | IC50 ([1]; microbroth dilution): 47 µg/mL (≈ 127 µM); IC50 ([2]; microbroth dilution): 22 µg/mL (≈ 59.4 µM) |
| COc1c(C)c2c3c(c1O)[C@@H](C)CC[C@@H]3[C@@H](C)C[C@H]2C=C(C)C [Compound 9] | 4 (≈ 12.7 µM) | 4 (≈ 12.7 µM) | 99.7 | > 128 | >4.3 | 30 | IC50 ([1]; microbroth dilution): 9 µg/mL (≈ 28.6 µM); IC50 ([2]; microbroth dilution): 12 µg/mL (≈ 38.2 µM); MIC [5, 10]: 52 µg/mL; cytotoxicity at 128 µg/mL [6]: 26% |
| COc1c(C)c2c3c(c1OC)[C@@H](C)CC[C@@H]3[C@@H](C)C[C@H]2C=C(C)C [Compound 10, 9,10-Dimethoxy-pseudopterosin G–J Aglycone] | > 64 | > 64 | 77.5 | 51 (≈ 155 µM) | – | > 128 | IC50 ([1]; microbroth dilution): > 128 µg/mL; IC50 ([2]; microbroth dilution): 25 µg/mL (≈ 76.1 µM) |
| COc1c(C)c2c3c(c1OS(=O)(=O)C(F)(F)F)[C@@H](C)CC[C@@H]3[C@@H](C)C[C@H]2C=C(C)C [Compound 11, 9-Trifluoromethylsulfonyloxy-10-methoxy-pseudopterosin G–J Aglycone] | > 64 | > 64 | 37.5 | 51 (≈ 114 µM) | – | > 128 | IC50 ([1]; microbroth dilution): > 128 µg/mL; IC50 ([2]; microbroth dilution): > 128 µg/mL |
| COc1c(C)c2c3c(c1OC(=O)N(C)C)[C@@H](C)CC[C@@H]3[C@@H](C)C[C@H]2C=C(C)C [Compound 12, 9-Dimethylcarbamoyloxy-10-methoxy-pseudopterosin G–J Aglycone] | – | – | 80 | > 128 | – | > 128 | IC50 [1]: > 128 µg/mL; IC50 [2]: 70 µg/mL (≈ 182 µM); MIC ([3]; ATCC12051, read-out: MIC M. smegmatis): 64 µg/mL (≈ 166 µM); MIC ([4]; ATCC19340, read-out: MIC M. diernhoferi): > 64 µg/mL; cytotoxicity at 128 µg/mL [6]: 0% |
| CC(C)=C[C@@H]1C[C@H](C)[C@H]2CC[C@H](C)c3c2c1c(C)c1ocnc31 [Compound 22, isopseudopteroxazole] | – | – | 100 | 52 (≈ 168 µM) | 3.6 | 14 | MIC [5, 10]: 44 µg/mL |
| COc1ccccc1-c1nc2c(C)c3c4c(c2o1)C(C)CCC4C(C)CC3C=C(C)C (stereo not drawn) [Compound 23] | – | – | 83.3 | 34 (≈ 81.8 µM) | – | > 82 | – |
| CC(C)=CC1CC(C)C2CCC(C)c3c2c1c(C)c1nc(-c2ccc(F)cc2)oc31 (stereo not drawn) [Compound 24] | – | – | -19 | > 31 | – | > 31 | cytotoxicity at 128 µg/mL [6]: 0% |
| CC(C)=CC1CC(C)C2CCC(C)c3c2c1c(C)c1nc(C)oc31 (stereo not drawn) [Compound 25] | – | – | 99 | 12 (≈ 37.1 µM) | 0.8 | 15 | – |
| CCC(C)c1nc2c(C)c3c4c(c2o1)C(C)CCC4C(C)CC3C=C(C)C (stereo not drawn) [Compound 26] | – | – | 59.1 | 73 (≈ 200 µM) | – | > 103 | – |
| CSCCc1nc2c(C)c3c4c(c2o1)C(C)CCC4C(C)CC3C=C(C)C (stereo not drawn) [Compound 27] | – | – | 90 | > 128 | >1.2 | 107 | cytotoxicity at 128 µg/mL [6]: 0% |
| CC(C)=CC1CC(C)C2CCC(C)c3c2c1c(C)c1nc(Cc2ccccc2)oc31 (stereo not drawn) [Compound 28] | – | – | 13.7 | 82 (≈ 205 µM) | – | > 128 | – |
| CC(C)=CC1CC(C)C2CCC(C)c3c2c1c(C)c1nc(C(C)O)oc31 (stereo not drawn) [Compound 29] | – | – | 99.8 | 24 (≈ 67.9 µM) | 0.5 | 53 | – |
| COC(=O)CCc1nc2c(C)c3c4c(c2o1)C(C)CCC4C(C)CC3C=C(C)C (stereo not drawn) [Compound 30] | – | – | 99.1 | 31 (≈ 78.4 µM) | – | > 128 | MIC [5, 10]: 62 µg/mL |
| CC(C)=CC1CC(C)C2CCC(C)c3c2c1c(C)c1nc(CCC(=O)O)oc31 (stereo not drawn) [Compound 31] | – | – | 99.1 | 102 (≈ 267 µM) | 1.1 | 95 | – |
| CC(C)=CC1CC(C)C2CCC(C)c3c2c1c(C)c1nc(CCC(N)=O)oc31 (stereo not drawn) [Compound 32] | – | – | 99 | 54 (≈ 142 µM) | 1.9 | 29 | – |
| CC(C)=CC1CC(C)C2CCC(C)c3c2c1c(C)c1nc(CC(N)=O)oc31 (stereo not drawn) [Compound 33] | – | – | 97.1 | 45 (≈ 123 µM) | 0.8 | 59 | – |
| NNC(=O)c1ccncc1 [Isoniazid] | – | – | – | – | – | 0.03 | LORA (% inh) in MIC column ([5]; % inhibition in parentheses, where the MIC exceeds the stated concentration): 65%; MIC [5, 10]: > 128 µg/mL; MIC [7, 12]: 0.03 µg/mL |
| O=[N+]([O-])c1cn2c(n1)OC[C@@H](OCc1ccc(OC(F)(F)F)cc1)C2 [PA824, reference compound] | – | – | – | – | – | 0.15 | – |
| CO[C@H]1/C=C/O[C@@]2(C)Oc3c(C)c(O)c4c(O)c(c(/C=N/N5CCN(C)CC5)c(O)c4c3C2=O)NC(=O)/C(C)=C\C=C\[C@H](C)[C@H](O)[C@@H](C)[C@@H](O)[C@@H](C)[C@H](OC(C)=O)[C@@H]1C [Rifampin, reference compound] | 4 (≈ 4.86 µM) | 4 (≈ 4.86 µM) | – | – | – | 0.04 | IC50 ([2]; microbroth dilution): 0.88 µg/mL (≈ 1.07 µM); MIC [5]: 0.93 µg/mL; MIC [7, 12]: 0.03 µg/mL |
| CN[C@H](CC(C)C)C(=O)N[C@H]1C(=O)N[C@@H](CC(N)=O)C(=O)N[C@H]2C(=O)N[C@H]3C(=O)N[C@H](C(=O)N[C@H](C(=O)O)c4cc(O)cc(O)c4-c4cc3ccc4O)[C@H](O)c3ccc(c(Cl)c3)Oc3cc2cc(c3O[C@@H]2O[C@H](CO)[C@@H](O)[C@H](O)[C@H]2O[C@H]2C[C@](C)(N)[C@H](O)[C@H](C)O2)Oc2ccc(cc2Cl)[C@H]1O [Vancomycin, reference compound] | – | – | – | – | – | – | IC50 [1]: 1.23 µg/mL (≈ 0.849 µM) |

Source: article PMC3447335, “Evaluation of Pseudopteroxazole and Pseudopterosin Derivatives against Mycobacterium tuberculosis and Other Pathogens” (Marine Drugs, 2012)
